Source: the NIST ThermoML archive (doi:10.1021/je060271a)

Conditions: 303.15 K, Liquid, Vibrating tube method

CCCCCC(=O)OCC(COC(=O)CCCCC)(COC(=O)CCCCC)COC(=O)CCCCC [pentaerythritol tetrahexanoate]
Conditions | mass density [kg/m3]
14798 kPa | 997.6
14823 kPa | 997.5
14847 kPa | 997.5
14871 kPa | 997.6
14900 kPa | 997.6
15031 kPa | 997.7
15056 kPa | 997.7
15080 kPa | 997.7
15110 kPa | 997.8
15293 kPa | 997.8
15647 kPa | 998.1
15670 kPa | 998.2
15694 kPa | 998.1
15716 kPa | 998
15743 kPa | 998.1
15766 kPa | 998.1
15789 kPa | 998
15816 kPa | 998.1
15838 kPa | 998.2
15888 kPa | 998.2
15911 kPa | 998.2
15933 kPa | 998.3
15961 kPa | 998.4
15983 kPa | 998.3
16011 kPa | 998.3
16034 kPa | 998.3
16056 kPa | 998.4
16083 kPa | 998.3
16106 kPa | 998.4
16127 kPa | 998.2
16149 kPa | 998.4
16175 kPa | 998.4
16197 kPa | 998.3
16218 kPa | 998.4
16244 kPa | 998.5
16266 kPa | 998.4
16288 kPa | 998.4
16313 kPa | 998.4
16335 kPa | 998.5
16357 kPa | 998.5
16384 kPa | 998.5
16406 kPa | 998.7
16427 kPa | 998.5
16447 kPa | 998.5
16471 kPa | 998.6
16491 kPa | 998.5
16512 kPa | 998.6
16532 kPa | 998.5
16557 kPa | 998.7
16578 kPa | 998.7
16599 kPa | 998.5
16624 kPa | 998.6
16644 kPa | 998.7
16666 kPa | 998.7
16687 kPa | 998.7
16708 kPa | 998.5
16732 kPa | 998.7
16752 kPa | 998.7
16772 kPa | 998.7
16796 kPa | 998.7
16840 kPa | 998.8
16860 kPa | 998.9
16880 kPa | 998.8
16904 kPa | 998.8
16924 kPa | 998.8
16945 kPa | 998.9
16966 kPa | 998.9
16990 kPa | 998.8
17010 kPa | 998.9
17035 kPa | 999
17056 kPa | 999
17077 kPa | 999
17098 kPa | 999
